US20040029829A1, “External skin preparations and process for producing the same” (priority 2000, published 2004)

Test system: human epidermic cells
Assay: Cell activation effect by cell culture (metabolic activity, WST-1)
Format: cell-based
Details: 0.5% fermented product 1 (SB), alone or combined
Method: Immortalized cells obtained by transforming human epidermic cells (manufactured by Kurabo Industries, Ltd.) using SV40 virus T antigen according to the method of Yasumoto et al. (Cultured Cell Experiment For Molecular Biology Research by S. Yasumoto, edited by T. Kuroki et al., Yodosha Co., Ltd., 1995, pp 191-200) were used as test cells. The cells were disseminated in a 96 well plate (4×10^3 cells/0.1 ml/well) and cultured in a serum-free liquid medium for proliferation (HuMedia-KG 2: Kurabo Industries, Ltd.) under the conditions of 37° C. and a CO2 concentration of 5%. […] The cells were also cultured in media to which the above components were individually added as Comparative Examples, and in a medium to which none of these components were added as a control. On the third day of culturing, a reducing-type coloring reagent (WST-1, manufactured by Dojindo Co.) was added in an amount of 10 μl/well, followed by incubation for 2 hours under the conditions of 37° C. and a CO2 concentration of 5%. Then, absorption at 450-660 nm was measured. Metabolic activity of the cells was calculated from the resulting absorbance. The cell activation effect was evaluated from the rate of increase in the metabolic activity in comparison with the control sample. […]

Row | SMILES | metabolic activity of human epidermic cells (5×10^−9 M all-trans-retinol (ROH), FIG. 1) | metabolic activity of human epidermic cells (5×10^−10 M all-trans-retinoic acid (RA), FIG. 2)
1 | CC1=C(/C=C/C(C)=C/C=C/C(C)=C/CO)C(C)(C)CCC1 [all-trans-retinol] | cannot exhibit metabolic activity | 
2 | CC1=C(/C=C/C(C)=C/C=C/C(C)=C/C(=O)O)C(C)(C)CCC1 [all-trans-retinoic acid] |  | cannot exhibit metabolic activity
